Square brackets hold non-standard residues; d marks the D form. Ends that are not written are not given here. Peptide text beside a SMILES is read from it. pS = N[C@@H](COP(=O)(O)O)C(=O)O

As a reminder, the Kd is the free concentration of one partner at which half of the binding sites on the other are occupied at equilibrium, for simple one-to-one binding. In general, stoichiometry N refers to a count of units in the complex or per binding partner.

For test [1], the target named is T1, 14-3-3ζ (Homo sapiens, UniProt P63104).
T1 construct: Both full-length 14-3-3ζ and 14-3-3ζΔC12 were expressed as N-terminally His-tagged protein; His tag (TEV-cleavable) (N, cleaved yes); made in house; host or cells: Escherichia coli BL21 (DE3) pLysS
T1 sequence (P63104 1-245): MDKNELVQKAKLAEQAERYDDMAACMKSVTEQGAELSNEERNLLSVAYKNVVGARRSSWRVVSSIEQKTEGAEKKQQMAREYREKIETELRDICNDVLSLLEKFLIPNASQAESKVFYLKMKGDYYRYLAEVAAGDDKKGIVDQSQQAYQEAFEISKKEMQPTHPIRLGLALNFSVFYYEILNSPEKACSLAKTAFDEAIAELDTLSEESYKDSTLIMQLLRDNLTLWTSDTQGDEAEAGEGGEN
The test is described as follows: ITC of Cby peptides titrated into 14-3-3ζ. The test is classed as binding. The conditions noted are these: for n (binding stoichiometry of monomeric 14-3-3 and Cby peptide): 25°C. From the text:
(§1) The human14-3-3ζ ORF purchased from GeneCopoeia was transferred into Gateway pDEST17 vector (Invitrogen). The 14-3-3ζΔC12, where the 12 C-terminal residues were deleted, was then generated from the full-length construct using QuikChange II Site-Directed Mutagenesis Kit (Strategene). Both full-length 14-3-3ζ and 14-3-3ζΔC12 were expressed as N-terminally His-tagged protein in Escherichia coli (E. coli) BL21 (DE3) pLysS in M9 medium. For unlabeled protein, protein expression was induced at an O.D.600 of 0.9 by adding 0.75 mM IPTG at 18°C for 24 h. The ^15N, ^13C, ^2H labeled 14-3-3ζΔC12 was produced by growing E. coli in deuterated M9 medium. Cells adapted to 70% D2O were used to inoculate a 1 L culture of M9 prepared in 100% D2O. Cells were grown at 37°C and overexpression was induced at an O.D.600 of 0.6 with 0.75 mM IPTG. After a 60-h induction at 18°C, the cells were harvested. All 14-3-3ζ constructs used in this study were purified from the crude lysate by affinity chromatography using Ni Sepharose Fast Flow beads (Amersham Biosciences). The tag was then cleaved by overnight incubation with His-tagged tobacco etch virus (TEV) protease at 25°C. The cleaved 14-3-3ζ, which retains an N-terminal glycine, was purified by passing the mixture through Ni Sepharose Fast Flow beads. The final yields for the 14-3-3ζ proteins were ~50 mg per L of M9 media (including deuterated media).
(§2) The Cby peptides used in this study were purchased from GenScript USA Inc. and the TUFTS University Core Facility. From GenScript USA Inc.: Cby 13-mer (NH2-^12KTPPRKSASLSNL^24-COOH), Cby S20D 13-mer (NH2-^12KTPPRKSADLSNL^24-COOH), Cby S20E 13-mer (NH2-^12KTPPRKSAELSNL^24-COOH), pCby 13-mer (NH2-^12KTPPRKSApSLSNL^24-COOH) and pCby 18-mer ((NH2-^12KTPPRKSApSLSNLHSLDR^29-COOH). From TUFTS: pCby 7-mer (Ac-^16RKSApSLS^22-NH2), pCby 11-mer (NH2-^12KTPPRKSApSLS^22-NH2), pCby S22P 7-mer (Ac-^16RKSApSLP^22-NH2), pCby S22P 13-mer (NH2-^12KTPPRKSApSLPNL^24-COOH) and pCby S22P 18-mer ([…]). Peptides were dissolved and dialyzed in 50 mM sodium phosphate, 100 mM NaCl at pH 6.8 for ITC and NMR experiments.
(§3) ITC experiments were performed on a VP-ITC instrument (MicroCal) at 25°C. The protein and peptide samples were dialyzed into a buffer containing 50 mM sodium phosphate, 100 mM NaCl, 1 mM DTT at pH 6.8 and degassed before the experiments. In a typical experiment, 5 μL aliquots of ~1–2 mM peptide were titrated stepwise into the 1.4 mL sample cell containing ~100–200 μM 14-3-3ζ. The association constant (Ka), molar binding stoichiometry (n) and the binding enthalpy (ΔH), entropy (ΔS) and Gibbs free energy (ΔG) were determined by fitting the binding isotherm to a one-site model with MicroCal Origin7 software. All ITC experiments were performed in duplicate. A duplicate set of thermodynamic derived binding parameters are found in S1 Table. Peptide and protein concentrations were determined from amino acid analysis (Amino Acid Analysis Facility, SickKids, Toronto, ON).

In test [2] the target is T2, 14-3-3ζ K49A (Homo sapiens, UniProt P63104, K49A).
T2 construct: His tag (TEV-cleavable) (N, cleaved yes); made in house
T2 sequence (P63104 1-245 K49A): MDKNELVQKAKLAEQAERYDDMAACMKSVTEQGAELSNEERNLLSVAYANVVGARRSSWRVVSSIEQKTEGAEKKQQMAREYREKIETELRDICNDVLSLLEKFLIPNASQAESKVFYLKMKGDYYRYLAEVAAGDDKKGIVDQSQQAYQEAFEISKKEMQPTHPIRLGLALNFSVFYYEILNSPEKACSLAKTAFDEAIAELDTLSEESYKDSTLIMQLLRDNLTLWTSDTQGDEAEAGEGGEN
The test is described as follows: ITC of Cby peptides titrated into 14-3-3ζ K49A. The test is classed as binding. The conditions noted are these: for n (binding stoichiometry of monomeric 14-3-3 and Cby peptide): 25°C, pH 6.8.
Description: In numerous crystal structures of 14-3-3 proteins in complex with phosphorylated S/T peptides, the conserved K49 (numbering refers to the ζ isoform) side-chain is observed forming a hydrogen bond with the phosphate group on pS/pT (illustrated in S3 Fig with an elucidated 14-3-3ζ/Raf1 structure). With Cby’s S22 side-chain juxtaposed between 14-3-3ζ residues K49 and R56, the K49 side-chain is sterically hindered from contacting pS20. As such, we speculated that the increases in binding affinity to 14-3-3ζ observed for the S22P mutant peptides might be the result of the favorable contacts between K49 and pS20 facilitated by the proline-induced conformational changes. To test this, a K49A mutation was introduced into 14-3-3ζ and ITC titrations were performed with 18-mer WT and S22P Cby peptides.
as §2, §3

The target in test [3] is T3, 14-3-3ζΔC12 (Homo sapiens, UniProt P63104).
T3 construct: The 14-3-3ζΔC12, where the 12 C-terminal residues were deleted, was then generated from the full-length construct; His tag (TEV-cleavable) (N, cleaved yes); made in house; host or cells: Escherichia coli BL21 (DE3) pLysS
T3 sequence (P63104 1-233 limits assumed): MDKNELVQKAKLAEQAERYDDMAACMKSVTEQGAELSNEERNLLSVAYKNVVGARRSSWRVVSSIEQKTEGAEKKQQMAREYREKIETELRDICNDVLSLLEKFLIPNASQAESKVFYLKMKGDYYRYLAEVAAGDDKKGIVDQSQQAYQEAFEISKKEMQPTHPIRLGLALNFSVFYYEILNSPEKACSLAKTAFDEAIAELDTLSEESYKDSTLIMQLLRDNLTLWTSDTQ
The test is described as follows: ITC of Cby peptides titrated into 14-3-3ζΔC12. The test is classed as binding. The conditions noted are these: 14-3-3ζΔC12 in ITC cell; for n (binding stoichiometry of monomeric 14-3-3 and Cby peptide): 25°C, pH 6.8.
Description: as §1, §2, §3

For test [4], the target named is T4, 14-3-3ζ (human, UniProt P63104 1-245).
T4 construct: N-terminal glycine retained after TEV cleavage of the His tag; 14-3-3 zeta, human, ORF purchased from GeneCopoeia, full-length construct; Dimer (~56 kDa); the stoichiometry n counts on the 14-3-3 monomer; also called full-length 14-3-3ζ; source: E. coli BL21 (DE3) pLysS, purified (Ni Sepharose, TEV cleavage, second Ni Sepharose pass); not shown: His tag, N-terminal, cleaved
T4 sequence: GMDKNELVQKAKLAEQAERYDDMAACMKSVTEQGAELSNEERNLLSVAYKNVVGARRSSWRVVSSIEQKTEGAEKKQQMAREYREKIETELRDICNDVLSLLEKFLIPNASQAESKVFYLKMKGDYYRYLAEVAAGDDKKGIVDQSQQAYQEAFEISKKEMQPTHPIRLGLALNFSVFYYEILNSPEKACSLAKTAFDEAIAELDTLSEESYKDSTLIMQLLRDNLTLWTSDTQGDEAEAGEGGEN
Description: ITC; duplicate set of titrations; 5 uL aliquots of ~1-2 mM peptide titrated into the 1.4 mL cell with ~100-200 uM 14-3-3ζ; 25 °C; 50 mM sodium phosphate, 100 mM NaCl, 1 mM DTT, pH 6.8; one-site model; n per 14-3-3 monomer. The conditions noted are these: both partners purified.

Setting [5] is: 298.15 K, duplicate set (S1 Table).
[6] abbreviates: 298.15 K, pH 6.8, Table 1 set of duplicate experiments.
Where [7] appears, read: 14-3-3ζ K49A in ITC cell, 298.15 K, Table 1 set of duplicate experiments.
Setting [8] is: 14-3-3ζ K49A in ITC cell, 298.15 K, duplicate set (S1 Table).
[9] abbreviates: 298.15 K, Table 1 set of duplicate experiments.

Regarding `CC(C)C[C@H](NC(=O)[C@H](COP(=O)(O)O)NC(=O)[C@H](C)NC(=O)[C@H](CO)NC(=O)[C@H](CCCCN)NC(=O)[C@H](CCCNC(=N)N)NC(=O)[C@@H]1CCCN1C(=O)[C@@H]1CCCN1C(=O)[C@@H](NC(=O)[C@@H](N)CCCCN)[C@@H](C)O)C(=O)N[C@@H](CO)C(=O)N[C@@H](CC(N)=O)C(=O)N[C@@H](CC(C)C)C(=O)N[C@@H](Cc1c[nH]cn1)C(=O)N[C@@H](CO)C(=O)N[C@@H](CC(C)C)C(=O)N[C@@H](CC(=O)O)C(=O)N[C@@H](CCCNC(=N)N)C(=O)O` [Cby 18-mer] (H-KTPPRKSA[pS]LSNLHSLDR-OH), in test [1], the “greater affinity compared to the Cby 7-mer (fold, in words)” value is on record as “nine-fold”. The “n (binding stoichiometry of monomeric 14-3-3 and Cby peptide)” value worked out at 0.96 in test [1] (50 mM sodium phosphate, 100 mM NaCl, 1 mM DTT, pH 6.8, one-site model, Table 1 set of duplicate experiments); 0.94 in test [1] (pH 6.8, duplicate set (S1 Table)); 1.01 in test [2] (14-3-3ζ K49A in ITC cell, Table 1 set of duplicate experiments); 1.07 in test [2] (14-3-3ζ K49A in ITC cell, duplicate set (S1 Table)); 1.04 in test [3] (Table 1 set of duplicate experiments); 1.02 in test [3] (duplicate set (S1 Table)). The “T∆S” value in test [1] (setting [5]) was 2.91 kcal/mol; in test [2] (setting [8]), 3.41 kcal/mol; in test [3] (setting [5]), 3.77 kcal/mol. The “∆G” value in test [1] (setting [5]) was -7.24 ± 0.04 kcal/mol; in test [2] (setting [8]), -7.17 ± 0.06 kcal/mol; in test [3] (setting [5]) it was -6.92 ± 0.03 kcal/mol. In addition, the “∆H” value in test [1] (setting [5]) is -4.33 ± 0.06 kcal/mol; in test [2] (setting [8]), -3.76 ± 0.07 kcal/mol; in test [3] (setting [5]), -3.15 ± 0.04 kcal/mol. The TΔS is reported as 2.93 kcal/mol in test [1] (setting [6]), 3.23 kcal/mol in test [2] (setting [7]) and 3.70 kcal/mol in test [3] (setting [9]). For the same molecule, the ΔG in test [1] (setting [6]) is recorded as -7.28 ± 0.03 kcal/mol; in test [2] (setting [7]), -7.39 ± 0.05 kcal/mol; in test [3] (setting [9]), -7.05 ± 0.03 kcal/mol. For the same molecule, the ΔH is listed as -4.35 ± 0.05 kcal/mol in test [1] (setting [6]), -4.16 ± 0.05 kcal/mol in test [2] (setting [7]) and -3.35 ± 0.06 kcal/mol in test [3] (setting [9]). The “ΔΔG of binding, 14-3-3ζ K49A compared to WT 14-3-3ζ” value in test [2] (ITC, 18-mer peptides) is ~ 0.1 kcal/mol. Further, the “effect of 14-3-3ζ K49A mutation on binding affinity (fold reduction)” value in test [2] (ITC, versus WT 14-3-3ζ) is recorded as “does not affect”.

B1: pCby 11-mer (peptide)
peptide: KTPPRKSA[pS]LS-NH2
modifications: N-terminus assumed
SMILES: CC(C)C[C@H](NC(=O)[C@H](COP(=O)(O)O)NC(=O)[C@H](C)NC(=O)[C@H](CO)NC(=O)[C@H](CCCCN)NC(=O)[C@H](CCCNC(=N)N)NC(=O)[C@@H]1CCCN1C(=O)[C@@H]1CCCN1C(=O)[C@@H](NC(=O)[C@@H](N)CCCCN)[C@@H](C)O)C(=O)N[C@@H](CO)C(N)=O
notes: Chibby (Cby), human, residues 12-22; source: synthetic peptide, bought: TUFTS University Core Facility
Take B1: in test [4], the Kd was 17.5 µM and the “stoichiometry N” value is 0.96.

B2: pCby S22P 13-mer (peptide)
peptide: KTPPRKSA[pS]LPNL
notes: Chibby (Cby), human, residues 12-24 with S22P; also called Cby 13-mer S22P; source: synthetic peptide, bought: TUFTS University Core Facility
As for B2, in test [4], binding was characterised by a dissociation constant (Kd) of 1.3 µM and the “stoichiometry N” value worked out at 1.02.
